Patent US12140559B2, “Cell analysis using ChemFET sensor array-based systems” (LIFE TECHNOLOGIES CORPORATION, priority 2018, dated 2024)
Read-outs that look alike come from different tables or passages of the source.

Key:
HEPG2 cells = settings: 100 μM; seen for some cells (CHEPG1, CHEPG2), not all (CHEPG3)
Protocol: The HEPG2 cells were resuspended at 1×10^6 cells per mL and plated onto chips for overnight incubation in a cell culture incubator to allow the cells to adhere to the prepared surface of the chip.

U-2OS cells = settings: series of concentration jumps
Text: FIG. 12A illustrates averaged background-subtracted temporal dose-response curves for U-2OS cells treated with FCCP. FIG. 12B illustrates averaged background-subtracted temporal dose-response curves for U-2OS cells pretreated with a nutrient solution containing oligomycin before being treated with FCCP.
Both Chip 1 and Chip 2 devices were ISFET devices selective for sensing hydrogen ion, and included a microwell array. […] The U-2OS cells were resuspended at 1×10^6 cells per mL and plated onto chips for overnight incubation in a cell culture incubator to allow the cells to adhere to the prepared surface of the chip. To test for dose-dependence of the FCCP treatment, cells were exposed to a series of concentration jumps during the experiment as indicated in FIGS. 12A and FIG. 12B. In FIG. 12A, experiments were carried out in the absence of oligomycin, and in 12B, the FCCP dose-response curve was generated in the presence of oligomycin.
The data in FIG. 12A and FIG. 12B are composed of averaged cellular responses from samples tested with FCCP.

HASM cells = HASM cells tested individually on separate device
Text: (§1) For the experiments for which data is presented in FIG. 13A through FIG. 13C, three distinct cell types were chosen to test for the ability of the instrument to discriminate cell type based on response to FCCP. To generate the data set comparing widely varying cell types, donor-derived primary human aortic smooth muscle (HASM) cells (HASMC; Gibco cat# C0075C), human cervical cancer cells (HeLa cells; ATCC catalogue number CRM CCL 2) and a mouse-derived […] cell line (MMM cells; ATCC catalogue number J774A.1) were selected for the study.
(§2) FIG. 13A through FIG. 13C are average background-subtracted temporal dose-responses curves for each type of cell line tested individually on separate devices. FIG. 13A is set of dose-response curves for HASM cells, FIG. 13B is a set of dose-response curves for HeLa cells, and FIG. 13C is a set of dose-response curves for MMM cells. For the data shown in FIG. 14A through FIG. 14C, a mixture of the cells were exposed to 100 μM FCCP and their responses recorded in order to understand whether or not the different cell types could be identified by their response to FCCP. FIG. 14A illustrates composite temporal dose-response curves for selected cells in a mixture of different cell types in which the cells were subjected to FCCP. FIG. 14B is an electroscopic image of the experiment of FIG. 14A taken at a time corresponding to frame 40 (2.7 seconds), in which squares within the cells indicate the pixels that were sampled for the data of FIG. 14A. FIG. 14C is the electroscopic image of FIG. 14B for which the squares within the cells in […] have removed to provide a clear image of the cells.
(§3) The sensor array devices used in experiments from which data for FIG. 13A though FIG. 14C was generated was a Chip 2 device of FIG. 3, selective for sensing hydrogen ion, and included a microwell array.

MMM cells = MMM cells tested individually on separate device
Text: as §1, §2, §3

HeLa cells = HeLa cells tested individually on separate device
Text: as §1, §2, §3

[1] = system: voltage-gated calcium ion channels; test: ChemFET sensor array: 30 mM KCl depolarizing stimulus in presence of calcium channel blocker, control vs transfected U-2OS cells; type: cell-based; settings: 10 μM, U-2OS control cells vs U-2OS transfected with voltage-gated calcium channel alpha, beta and alpha-2-delta subunits
Text: FIG. 9A illustrates temporal response curves for U-2OS cells (C1 and C2) and U-2OS cells transfected with voltage-gated calcium channel alpha, beta and alpha-2-delta subunits (C3 and C4). The temporal response curves presented in FIG. 9A represent data collected over an area of interest for the U-2OS cells in comparison to transfected U-2OS cells, in which the impact of cell response for each type of cell treated with the calcium ion channel blocker verapamil was monitored through a cycle of an initial state of resting potential, followed by conditions for depolarization of membrane potential, and return to resting potential.
Briefly, the sensor array device surface was soaked for 30 minutes with 70% ethanol in water, then rinsed with PBS before adding a solution of 0.1% poly-D-lysine, which was allowed to sit for two hours. The device was then rinsed twice with 200 μL of a cell culture medium, for example, McCoy's 5A modified medium with 10% fetal calf serum. After rinsing with the cell culture medium, the devices were ready for plating with a cell suspension.
Preparation of transfected cells was done using a cell suspension of 1×10^6 cells per mL. Mammalianized BacMam gene delivery particles encoding a mixture of voltage-gated calcium ion channel alpha, beta and alpha-2-delta subunits was added to the cell suspension to reconstitute functional channels. […]

## N#CC(C#N)=NNc1ccc(OC(F)(F)F)cc1 [FCCP, carbonyl cyanide-4-(trifluoromethoxy)phenylhydrazone]
HEPG2 cells
  cellular response observed during application (electroscopic image): efflux of cellular contents
U-2OS cells; absence of oligomycin
  averaged cellular temporal response: dose-dependent FCCP responses
U-2OS cells; presence of oligomycin (pretreatment)
  averaged cellular temporal response: dose-dependent FCCP responses
HASM cells
  temporal response to FCCP: distinct kinetic and amplitude response
MMM cells
  temporal response to FCCP: distinct kinetic and amplitude response
HeLa cells
  temporal response to FCCP: distinct kinetic and amplitude response

## COc1ccc(CCN(C)CCCC(C#N)(c2ccc(OC)c(OC)c2)C(C)C)cc1OC (stereo not shown) [verapamil]
[1]
  activity of blocker on temporal response to depolarizing stimulus: selective activity of a blocker on cultures that express the target protein
